Source: patent EP3995133A1, “STABLE NANOEMULSIONS” (Fundación Tecnalia Research & Innovation, priority 2020, dated 2022)
Read-outs that look alike come from different tables or passages of the source.

What was measured:
3T3 = conditions: 3T3, 24 hours
Description: (§1) Potential apoptosis and necrosis induction was studied in the cell lines using Annexin V conjugated with Alexa Fluor 488 (Molecular Probes) and Propidium Iodide (PI, Sigma) fluorochromes by Flow Cytometry, to measure early apoptotic event and necrosis respectively, after exposure to different concentrations of sulforaphane or sulforaphane-loaded nanoemulsion suspensions. HaCaT, and 3T3 cells were seeded in 24 well plates at a density of 100.000 cells/well. 24 hours later cells were exposed to test items for further 24 hours. After the exposure, 5 µL of the annexin V conjugates were added to each 100 µL of cell suspension replicate (minimum of 10.000 cell/100µL) and incubated at room temperature for 15 minutes. After incubation, cells were washed and submitted to flow cytometry acquisition. Immediately before acquisition, the stained cells were contrasted with PI (5 µg/ml) to detect necrotic cells and analysed by Cytomics FC500 Flow Cytometer. Three independent experiments and at least three replicates for each experimental point were carried out. Each experiment included a negative control (untreated cells). […]

HaCaT = conditions: 24 hours
Description: as §1

[1] = 6.25 mM sulforaphane (6.26 printed for the nanoemulsion)

SMILES: C[S+]([O-])CCCCN=C=S (racemic) [Sulforaphane, D,L-Sulforaphane]
- AnnexinV (percentage of positive cells) (3T3; 3.125 mM sulforaphane): 7.73±1.23%
- AnnexinV+PI (percentage of positive cells) (3T3; 3.125 mM sulforaphane): 1.93±0.15%
- C neg (percentage of cells) (3T3; 3.125 mM sulforaphane): 86.23±1.77%
- PI (percentage of positive cells) (3T3; 3.125 mM sulforaphane): 4.10±2.38%
- AnnexinV (percentage of positive cells) (3T3; [1]): 7.83±1.50%
- AnnexinV+PI (percentage of positive cells) (3T3; [1]): 2.03±0.46%
- C neg (percentage of cells) (3T3; [1]): 86.97±1.68%
- PI (percentage of positive cells) (3T3; [1]): 3.17±0.76%
- AnnexinV (percentage of positive cells) (3T3; 12.5 mM sulforaphane): 11.07±1.59%
- AnnexinV+PI (percentage of positive cells) (3T3; 12.5 mM sulforaphane): 3.07±0.67%
- C neg (percentage of cells) (3T3; 12.5 mM sulforaphane): 81.57±3.40%
- PI (percentage of positive cells) (3T3; 12.5 mM sulforaphane): 4.30±0.54%
- AnnexinV (percentage of positive cells) (HaCaT; 3.125 mM sulforaphane): 5.90±0.98%
- AnnexinV+PI (percentage of positive cells) (HaCaT; 3.125 mM sulforaphane): 1.27±0.06%
- C neg (percentage of cells) (HaCaT; 3.125 mM sulforaphane): 90.97±1.77%
- PI (percentage of positive cells) (HaCaT; 3.125 mM sulforaphane): 1.87±0.81%
- AnnexinV (percentage of positive cells) (HaCaT; [1]): 7.33±1.82%
- AnnexinV+PI (percentage of positive cells) (HaCaT; [1]): 1.83±0.15%
- C neg (percentage of cells) (HaCaT; [1]): 88.50±1.65%
- PI (percentage of positive cells) (HaCaT; [1]): 2.33±0.61%
- AnnexinV (percentage of positive cells) (HaCaT; 12.5 mM sulforaphane): 7.17±1.74%
- AnnexinV+PI (percentage of positive cells) (HaCaT; 12.5 mM sulforaphane): 2.03±0.35%
- C neg (percentage of cells) (HaCaT; 12.5 mM sulforaphane): 88.10±3.40%
- PI (percentage of positive cells) (HaCaT; 12.5 mM sulforaphane): 2.70±0.30%
